In paper PMC4109017 (Nature Communications, 2014) one finds Vmax/KM data, which are given here for 2 compounds.

For assay [1], the target named is FALDH Q445X (without gatekeeper helix) (Homo sapiens, UniProt P51648). Briefly: fluorometric NADH formation, Michaelis-Menten fit. The settings on record: 1 mM NAD, 25 mM sodium pyrophosphate pH 8.0, 0.1% Triton X-100, 37 °C. Type of assay: biochemical.
Another assay has as its target FALDH (K463X) (Homo sapiens, UniProt P51648). Briefly: fluorometric NADH formation, Michaelis-Menten fit. In kind it is biochemical. The settings on record: 1 mM NAD, 25 mM sodium pyrophosphate pH 8.0, 0.1% Triton X-100, 37 °C.

Sequence of FALDH (K463X) (P51648 1-462): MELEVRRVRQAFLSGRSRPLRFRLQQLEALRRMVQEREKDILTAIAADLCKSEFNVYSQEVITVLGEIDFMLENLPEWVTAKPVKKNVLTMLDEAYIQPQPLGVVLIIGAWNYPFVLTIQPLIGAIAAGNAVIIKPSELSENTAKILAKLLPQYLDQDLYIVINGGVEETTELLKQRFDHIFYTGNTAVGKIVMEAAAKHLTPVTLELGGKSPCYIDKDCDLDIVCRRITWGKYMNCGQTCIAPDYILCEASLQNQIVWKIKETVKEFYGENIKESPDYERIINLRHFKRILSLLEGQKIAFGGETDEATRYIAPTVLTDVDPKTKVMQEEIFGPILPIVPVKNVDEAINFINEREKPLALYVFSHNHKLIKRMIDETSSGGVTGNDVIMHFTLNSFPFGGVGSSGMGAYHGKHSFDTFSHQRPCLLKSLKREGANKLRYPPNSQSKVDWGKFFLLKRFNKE
Sequence of FALDH Q445X (without gatekeeper helix) (P51648 1-444): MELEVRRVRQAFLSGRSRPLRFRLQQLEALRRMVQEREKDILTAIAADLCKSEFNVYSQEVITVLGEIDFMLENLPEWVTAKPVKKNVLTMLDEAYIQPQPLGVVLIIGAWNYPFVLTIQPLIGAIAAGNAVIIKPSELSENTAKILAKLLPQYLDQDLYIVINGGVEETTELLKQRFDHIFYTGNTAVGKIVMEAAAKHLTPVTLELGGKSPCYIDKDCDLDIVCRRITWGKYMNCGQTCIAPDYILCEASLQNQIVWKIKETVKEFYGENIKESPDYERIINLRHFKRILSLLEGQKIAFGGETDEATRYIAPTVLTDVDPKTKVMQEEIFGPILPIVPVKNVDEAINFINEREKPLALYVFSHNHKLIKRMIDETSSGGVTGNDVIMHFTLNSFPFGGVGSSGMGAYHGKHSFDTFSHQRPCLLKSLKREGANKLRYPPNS

On to `CCCCCCCCCCCC=O` [dodecanal], for which the Vmax/KM entry is “longer fatty aldehydes docecanal (C12) and hexadecanal (C16) were used as substrates” in assay [1]; “metabolize octanal, dodecanal and hexadecanal” at FALDH (K463X).
With `CCCCCCCCCCCCCCCC=O` [hexadecanal], the Vmax/KM entry at FALDH (K463X) is “metabolize octanal, dodecanal and hexadecanal”.
